# In patent US7015329B2 (Janssen Pharmaceutica N. V., priority 2003, dated 2006):
# Assays:
# [1] = tested on: differentiated THP-1 monocytes; conditions: cited from earlier work
# PPAR delta = biological target: T1, PPAR delta (Homo sapiens, UniProt Q03181); assay: Transfection assay for PPAR receptors (GAL4-LBD luciferase reporter), PPAR delta; format: cell-based; conditions: Table 1; HEK293 cells co-transfected with PPAR LBD-GAL4 and GAL4 (UAS) luciferase reporter, 18–24 hrs
# T1 construct: expressed in transfected cells; host or cells: HEK293
# T1 sequence (Q03181 211-439 limits assumed): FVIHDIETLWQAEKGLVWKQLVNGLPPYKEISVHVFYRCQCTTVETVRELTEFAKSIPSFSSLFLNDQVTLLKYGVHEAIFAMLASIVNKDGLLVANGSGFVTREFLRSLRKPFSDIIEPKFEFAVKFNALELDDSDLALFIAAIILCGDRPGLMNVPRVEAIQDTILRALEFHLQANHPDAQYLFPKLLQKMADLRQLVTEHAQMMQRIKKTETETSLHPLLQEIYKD
# Procedure: (§1) Transfection Assay Method for PPAR Receptors
# (§2) HEK293 cells were grown in DMEM/F12 medium supplemented with 10% FBS and glutamine (Invitrogen) and incubated in a 5% CO2 incubator at 37° C. The cells were co-transfected using DMRIE-C reagent (Invitrogen) in serum free medium (Opti-MEM, Invitrogen) with two mammalian expression plasmids, one containing the DNA sequence coding for the ligand binding domains of either PPARαg or d fused to the yeast GAL4 DNA binding domain and the other containing the promoter sequence of the yeast GAL4 (UAS) fused to the firefly luciferase cDNA reporter. The next day, the medium was changed to DMEM/F12 medium supplemented with 5% charcoal treated serum (Hyclone) and glutamine. After 6 hrs the cells were trypsinized and seeded at a density of 50,000 cells/well into 96 well plates and incubated overnight as above. The cells were then treated with -test compounds or vehicle and incubated for 18–24 hrs as above. Luciferase reporter activity was measured using the Steady-Glo Luciferase Assay Kit from Promega. DMRIE-C Reagent was purchased from GIBCO Cat. No.10459-014. […] Steady-Glo Luciferase Assay Kit was purchased from Promega (Part#E254B).
# PPAR alpha = biological target: T2, PPAR alpha (Homo sapiens, UniProt Q07869); assay: Transfection assay for PPAR receptors (GAL4-LBD luciferase reporter), PPAR alpha; format: cell-based; conditions: Table 1; HEK293 cells co-transfected with PPAR LBD-GAL4 and GAL4 (UAS) luciferase reporter, 18–24 hrs
# T2 construct: expressed in transfected cells; host or cells: HEK293
# T2 sequence (Q07869 239-466 limits assumed): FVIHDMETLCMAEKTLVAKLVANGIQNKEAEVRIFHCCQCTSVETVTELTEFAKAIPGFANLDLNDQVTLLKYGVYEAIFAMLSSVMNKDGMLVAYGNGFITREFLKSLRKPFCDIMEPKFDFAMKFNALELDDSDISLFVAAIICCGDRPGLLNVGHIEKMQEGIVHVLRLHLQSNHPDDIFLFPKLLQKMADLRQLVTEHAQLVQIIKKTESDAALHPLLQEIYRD
# Procedure: as §1
# HEK293 cells were grown in DMEM/F12 medium supplemented with 10% FBS and glutamine (Invitrogen) and incubated in a 5% CO2 incubator at 37° C. The cells were co-transfected using DMRIE-C reagent (Invitrogen) in serum free medium (Opti-MEM, Invitrogen) with two mammalian expression plasmids, one containing the DNA sequence coding for the ligand binding domains of either PPARαg or d fused to the yeast GAL4 DNA binding domain and the other containing the promoter sequence of the yeast GAL4 (UAS) fused to the firefly luciferase cDNA reporter. The next day, the medium was changed to DMEM/F12 medium supplemented with 5% charcoal treated serum (Hyclone) and glutamine. After 6 hrs the cells were trypsinized and seeded at a density of 50,000 cells/well into 96 well plates and incubated overnight as above. The cells were then treated with -test compounds or vehicle and incubated for 18–24 hrs as above. Luciferase reporter activity was measured using the Steady-Glo Luciferase Assay Kit from Promega. DMRIE-C Reagent was purchased from GIBCO Cat. No.10459-014. OPTI-MEM I Reduced Serum Medium was purchased from GIBCO (Cat. No. 31985). Steady-Glo Luciferase Assay Kit was purchased from Promega (Part#E254B).
# A variety of example compounds have been made and tested, with a range of in vitro results. Below are representative compounds and data; in some cases, where multiple EC50's are shown, multiple measurements were taken. Naturally, different compounds in Formula (I) may have not have activities identical to any one compound below.
# PPAR gamma = biological target: T3, PPAR gamma (Homo sapiens, UniProt P37231); assay: Transfection assay for PPAR receptors (GAL4-LBD luciferase reporter), PPAR gamma; format: cell-based; conditions: Table 1; HEK293 cells co-transfected with PPAR LBD-GAL4 and GAL4 (UAS) luciferase reporter, 18–24 hrs
# T3 construct: expressed in transfected cells; host or cells: HEK293
# T3 sequence (P37231 238-503 limits assumed): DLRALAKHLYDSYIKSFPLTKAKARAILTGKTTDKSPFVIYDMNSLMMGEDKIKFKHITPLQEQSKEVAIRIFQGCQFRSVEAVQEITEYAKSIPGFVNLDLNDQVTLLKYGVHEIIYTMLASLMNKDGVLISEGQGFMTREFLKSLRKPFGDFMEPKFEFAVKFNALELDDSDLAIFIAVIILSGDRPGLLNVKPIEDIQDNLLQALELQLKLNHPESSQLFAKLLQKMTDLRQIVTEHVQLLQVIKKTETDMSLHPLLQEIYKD
# Procedure: as §1, §2
SMILES,ABCA1 mRNA expression [1],cholesterol efflux [1],EC50 (PPAR delta),EC50 (PPAR alpha),EC50 (PPAR gamma)
Cc1cc(SCc2sc(-c3ccc(C(F)(F)F)cc3)nc2C)ccc1OCC(=O)O [GW501516],induced,enhanced,,,
"Cc1cc(OCc2nc(-c3ccc(OC(F)(F)F)cc3)ns2)ccc1OC(C)(C)C(=O)O [Compound 24, 2-Methyl-2-{2-methyl-4-[3-(4-trifluoromethoxy-phenyl)-[1,2,4]thiadiazol-5-ylmethoxy]-phenoxy}-propionic acid]",,,12.3 nM,93.5 nM,> 3 µM
